Experimental data as given in US20060276844A1, “Ingestible device for nitric oxide production in tissue” (priority 2005, published 2006).

Columns and labels:
[1] = system: rat jejunum; assay: NO-signal-enhanced drug permeation in rat jejunum in vitro, with NOS inhibitor L-NAME (FIGS. 2-3); type: in vitro ADME; settings: 1 mM L-NAME plus NO signal (5 mA, 1 ms, 18 Hz), rat jejunum segments
Text: Reference is made to FIGS. 2 and 3, which are graphs showing in vitro experimental results measured in accordance with an embodiment of the present invention. These experiments assessed the effect of the application of an electrical signal configured to enhance NO-associated drug permeation, which is inhibited by non-specific NOS inhibitor NG-Nitro-L-Arginine methyl ester (L-NAME) in rat jejunum in vitro. The NO-releasing electrical signal (hereinbelow, the “NO signal”) was applied with the following parameters: an amplitude of 5 mA, a pulse width of 1 ms, and a frequency of 18 Hz. In the experiment shown in FIG. 2, 1 mg/ml octreotide was applied to 11 segments of rat jejunum. The NO signal alone was applied to six of the segments, 1 mM L-NAME alone was applied to two of the segments, and the NO signal and 1 mM L-NAME were applied to three of the segments. In the experiment shown in FIG. 3, 1 mg/ml leuprolide was applied to 14 segments of rat jejunum. The NO signal alone was applied to three of the segments, 1 mM L-NAME alone was applied to two of the segments, the NO signal and 1 mM L-NAME were applied to three of the segments, and no treatment was applied to the remaining six segments.

[2] = system: rat jejunum; assay: Octreotide permeation in rat jejunum in vitro: electrical stimulation versus NO donor (FIG. 4); type: in vitro ADME
Protocol: FIG. 4 is a graph showing in vitro experimental results measured in accordance with an embodiment of the present invention. In this experiment, the permeation-enhancing effect of electrical stimulation in rat jejunum in vitro was compared with the effect of an NO donor, molsidomine (SIN-10) (exogenous nitric oxide). The NO signal alone was applied to six segments of rat jejunum, 1 mM SIN-10 alone was applied to four segments, the NO signal and 1 mM SIN-10 were applied to three segments, and no treatment was applied to six segments.

SMILES | effect on NO-signal-enhanced drug permeation (octreotide) ([1]; FIG. 2, 1 mg/ml octreotide) | effect on NO-signal-enhanced drug permeation (leuprolide) ([1]; FIG. 3, 1 mg/ml leuprolide) | rate of octreotide transepithelial transport compared with electrically-induced absorption ([2]; 1 mM SIN-10 alone) | effect of combination with electrical stimulation on enhanced permeation of octreotide, versus electrical stimulation alone ([2]; NO signal plus 1 mM SIN-10)
COC(=O)[C@@H](N)CCCNC(=N)N[N+](=O)[O-] [L-NAME, NG-Nitro-L-Arginine methyl ester] | nearly prevented | nearly prevented | – | –
CCOC(=O)[N-]c1cn(N2CCOCC2)n[o+]1 [SIN-10, molsidomine] | – | – | similar | did not augment
